Data reported in US6737383B1, “Herbicidal oxadiazolidines” (priority 1999, dated 2004).

Legend:
[1] = test system: wheat; assay: Test B pre/postemergence wheat; format: in vivo, Triticum aestivum
Outline: (§1)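 Test chemicals in a non-phytotoxic solvent mixture with surfactant were sprayed preemergence onto planted seeds and postemergence onto plants 2 to 18 cm tall (1- to 4-leaf stage). After twelve to sixteen days in a greenhouse, injury was visually rated against untreated controls from 0 (no effect) to 10 (complete control).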

[2] = test system: duck salad; assay: Test B flood test duck salad; format: in vivo, Heteranthera limosa
Outline: (§2)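 Flood test on plants grown to the 2-leaf stage; treated plants kept in greenhouse twelve to sixteen days, then visually rated against controls on a 0 (no effect) to 10 (complete control) scale.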

[3] = test system: rape; assay: Test B pre/postemergence rape; format: in vivo, Brassica napus
Outline: as §1

[4] = test system: sugar beet; assay: Test B pre/postemergence sugar beet; format: in vivo, Beta vulgaris
Outline: as §1

[5] = test system: rice; assay: Test B flood test rice; format: in vivo, Oryza sativa
Outline: as §2

[6] = test system: soybean; assay: Test B pre/postemergence soybean; format: in vivo, Glycine max
Outline: as §1

[7] = test system: purple nutsedge; assay: Test B pre/postemergence purple nutsedge; format: in vivo, Cyperus rotundus
Outline: as §1

[8] = test system: blackgrass; assay: Test B pre/postemergence blackgrass; format: in vivo, Alopecurus myosuroides
Outline: as §1

[9] = test system: morningglory; assay: Test B pre/postemergence morningglory; format: in vivo, Ipomoea hederacea
Outline: as §1

[10] = test system: smallflower flatsedge; assay: Test B flood test smallflower flatsedge; format: in vivo, Cyperus difformis
Outline: as §2

[11] = test system: giant foxtail; assay: Test B pre/postemergence giant foxtail; format: in vivo, Setaria faberii
Outline: as §1

[12] = test system: bamyardgrass; assay: Test B flood test barnyardgrass; format: in vivo, Echinochloa crus-galli
Outline: as §2

[13] = test system: velvetleaf; assay: Test B pre/postemergence velvetleaf; format: in vivo, Abutilon theophrasti
Outline: as §1

[14] = test system: wild oat; assay: Test B pre/postemergence wild oat; format: in vivo, Avena fatua
Outline: as §1

[15] = test system: bedstraw; assay: Test B pre/postemergence bedstraw; format: in vivo, Galium aparine
Outline: as §1

[16] = test system: pigweed; assay: Test B pre/postemergence pigweed; format: in vivo, Amaranthus retroflexus
Outline: as §1

[17] = Postemergence, Rate 62 g/ha, scale of 0 to 10, 0 is no effect, 10 is complete control
[18] = Postemergence, Rate 500 g/ha, scale of 0 to 10 where 0 is no effect and 10 is complete control
[19] = Preemergence, Rate 62 g/ha, scale 0 to 10 (0 no effect, 10 complete control)
[20] = Preemergence, Rate 125 g/ha, scale 0 to 10, 0 is no effect, 10 is complete control
[21] = Preemergence, Rate 500 g/ha, scale of 0 to 10 where 0 is no effect and 10 is complete control
[22] = Rate 250 g/ha, Postemergence, scale of 0 to 10 where 0 is no effect and 10 is complete control
[23] = Rate 62 g/ha, flood test species, Pre-emergence, visual evaluation after twelve to sixteen days
[24] = Rate 125 g/ha, under heading Pre-emergence, flood test species, visual evaluation after twelve to sixteen days
[25] = Rate 250 g/ha, Pre-emergence (flood test species), scale 0 to 10, 0 is no effect, 10 is complete control
[26] = Rate 500 g/ha, Pre-emergence section of Table B, 0 to 10 scale (0 no effect, 10 complete control)
[27] = Postemergence, Rate 125 g/ha, scale 0 to 10, 0 is no effect, 10 is complete control

Compound: CC(C)N(C(=O)n1oc(=O)n(CCC2OCCO2)c1=O)c1ccccc1 [Compound 560]
- Wheat plant response rating [1, 17]: 0
- Plant response rating, Wheat [1, 18]: 6
- Wheat plant response rating [1, 19]: 3
- Wheat plant response rating [1, 20]: 5
- Wheat plant response rating (0 to 10 scale) ([1]; Preemergence, Rate 250 g/ha): 6
- Wheat plant response rating [1, 21]: 8
- Plant response rating, Wheat [1, 22]: 3
- Plant response rating, Ducksalad (0 to 10 scale, 0 is no effect, 10 is complete control) [2, 23]: 0
- Ducksalad plant response rating (0 to 10 scale, 0 is no effect, 10 is complete control) [2, 24]: 0
- Ducksalad plant response rating [2, 25]: 0
- Ducksalad plant response rating [2, 26]: 0
- Rape plant response rating [3, 17]: 0
- Plant response rating, Rape [3, 18]: 7
- Rape plant response rating [3, 19]: 0
- Rape plant response rating [3, 20]: 3
- Rape plant response rating (0 to 10 scale) ([3]; Preemergence, Rate 250 g/ha): 7
- Rape plant response rating [3, 21]: 8
- Plant response rating, Rape [3, 22]: 4
- Sugarbeets plant response rating [4, 17]: 0
- Plant response rating, Sugarbeets [4, 18]: 6
- Sugarbeets plant response rating [4, 19]: 0
- Sugarbeets plant response rating [4, 20]: 0
- Sugarbeets plant response rating (0 to 10 scale) ([4]; Preemergence, Rate 250 g/ha): 3
- Sugarbeets plant response rating [4, 21]: 7
- Plant response rating, Sugarbeets [4, 22]: 0
- Plant response rating, Rice (0 to 10 scale, 0 is no effect, 10 is complete control) [5, 23]: 0
- Rice plant response rating (0 to 10 scale, 0 is no effect, 10 is complete control) [5, 24]: 0
- Rice plant response rating [5, 25]: 0
- Rice plant response rating [5, 26]: 0
- Soybean plant response rating [6, 17]: 2
- Plant response rating, Soybean [6, 18]: 3
- Soybean plant response rating [6, 19]: 0
- Soybean plant response rating [6, 20]: 0
- Soybean plant response rating (0 to 10 scale) ([6]; Preemergence, Rate 250 g/ha): 1
- Soybean plant response rating [6, 21]: 3
- Plant response rating, Soybean [6, 22]: 2
- Nutsedge plant response rating [7, 17]: 3
- Nutsedge plant response rating [7, 27]: 3
- Plant response rating, Nutsedge [7, 18]: 5
- Nutsedge plant response rating [7, 19]: 0
- Nutsedge plant response rating [7, 20]: 3
- Nutsedge plant response rating (0 to 10 scale) ([7]; Preemergence, Rate 250 g/ha): 7
- Nutsedge plant response rating [7, 21]: 10
- Plant response rating, Nutsedge [7, 22]: 3
- Blackgrass plant response rating [8, 17]: 2
- Blackgrass plant response rating [8, 27]: 5
- Plant response rating, Blackgrass [8, 18]: 7
- Blackgrass plant response rating [8, 19]: 4
- Blackgrass plant response rating [8, 20]: 6
- Blackgrass plant response rating (0 to 10 scale) ([8]; Preemergence, Rate 250 g/ha): 9
- Blackgrass plant response rating [8, 21]: 9
- Plant response rating, Blackgrass [8, 22]: 7
- Morningglory plant response rating [9, 17]: 4
- Morningglory plant response rating [9, 27]: 7
- Plant response rating, Morningglory [9, 18]: 10
- Morningglory plant response rating [9, 19]: 0
- Morningglory plant response rating [9, 20]: 0
- Morningglory plant response rating (0 to 10 scale) ([9]; Preemergence, Rate 250 g/ha): 3
- Morningglory plant response rating [9, 21]: 3
- Plant response rating, Morningglory [9, 22]: 9
- Plant response rating, S. Flatsedge (0 to 10 scale, 0 is no effect, 10 is complete control) [10, 23]: 0
- S. Flatsedge plant response rating (0 to 10 scale, 0 is no effect, 10 is complete control) [10, 24]: 0
- S. Flatsedge plant response rating [10, 25]: 0
- S. Flatsedge plant response rating [10, 26]: 0
- Giant foxtail plant response rating [11, 17]: 2
- Giant foxtail plant response rating [11, 27]: 7
- Plant response rating, Giant foxtail [11, 18]: 8
- Giant foxtail plant response rating [11, 19]: 10
- Giant foxtail plant response rating [11, 20]: 10
- Giant foxtail plant response rating (0 to 10 scale) ([11]; Preemergence, Rate 250 g/ha): 10
- Giant foxtail plant response rating [11, 21]: 10
- Plant response rating, Giant foxtail [11, 22]: 7
- Plant response rating, Barnyardgrass (0 to 10 scale, 0 is no effect, 10 is complete control) [12, 23]: 0
- Barnyardgrass plant response rating (0 to 10 scale, 0 is no effect, 10 is complete control) [12, 24]: 0
- Barnyardgrass plant response rating [12, 25]: 0
- Barnyardgrass plant response rating [12, 26]: 0
- Velvetleaf plant response rating [13, 17]: 0
- Plant response rating, Velvetleaf [13, 18]: 0
- Velvetleaf plant response rating [13, 19]: 0
- Velvetleaf plant response rating [13, 20]: 2
- Velvetleaf plant response rating (0 to 10 scale) ([13]; Preemergence, Rate 250 g/ha): 2
- Velvetleaf plant response rating [13, 21]: 5
- Plant response rating, Velvetleaf [13, 22]: 0
- Wild oats plant response rating [14, 17]: 0
- Plant response rating, Wild oats [14, 18]: 2
- Wild oats plant response rating [14, 19]: 0
- Wild oats plant response rating [14, 20]: 0
- Wild oats plant response rating (0 to 10 scale) ([14]; Preemergence, Rate 250 g/ha): 5
- Wild oats plant response rating [14, 21]: 7
- Plant response rating, Wild oats [14, 22]: 2
- Bedstraw plant response rating [15, 17]: 0
- Bedstraw plant response rating [15, 19]: 0
- Bedstraw plant response rating [15, 20]: 0
- Bedstraw plant response rating (0 to 10 scale) ([15]; Preemergence, Rate 250 g/ha): 5
- Bedstraw plant response rating [15, 21]: 8
- Plant response rating, Bedstraw [15, 22]: 0
- Redroot pigweed plant response rating [16, 17]: 2
- Plant response rating, Redroot pigweed [16, 18]: 9
- Redroot pigweed plant response rating [16, 19]: 3
- Redroot pigweed plant response rating [16, 20]: 8
- Redroot pigweed plant response rating (0 to 10 scale) ([16]; Preemergence, Rate 250 g/ha): 9
- Redroot pigweed plant response rating [16, 21]: 9
- Plant response rating, Redroot pigweed [16, 22]: 8
